In brackets after ≈: the same amount, converted by molar mass. Where two headings read alike, the source gives them in different places.
Tests used:
[1] = test system: Hs27 (human foreskin fibroblast); experiment: Cytotoxicity assay (MTT); type: cell-based; conditions: 24 h treatment
T. gondii = conditions: values from the earlier paper; ref [25]; cited from earlier work
T. gondii RH-GFP [2] = experiment: microbe, parasite or virus in culture; type: cell-based, Toxoplasma gondii
Experimental: Cell and parasite culture: The Hs27 (human foreskin fibroblast) (ATCC® CRL-1634™) (ATCC, Manassas, VA, USA) were culturing in DMEM (Dulbecco’s modified Eagle’s medium-ATCC® 30-2002™, ATCC) supplemented with 10% fetal bovine serum (fetal bovine serum, ATCC® 30-2020™, ATCC), 100 I.U./mL penicillin and 100 μg/mL streptomycin (penicillin-streptomycin solution ATCC® 30-2300™, ATCC). Cells were trypsinized (Trypsin-EDTA Solution ATCC® 30-2101™, ATCC) twice a week and seeded at a density of 1 × 10^6 per T25 cell culture flask and incubated in a 37 °C and 5% CO2 to achieve a confluent monolayer. The RH strain of Toxoplasma gondii (RH-GFP ATCC® 50940™, ATCC, highly virulent, haplogroup first, expression of green fluorescent protein) was maintained as tachyzoites, in parasite culture medium, which contains DMEM medium with 3% HIFBS (heat-inactivated FBS; 1 h in 56 °C). Infected tissue culture cells were incubated in a 37 °C and 5% CO2.
After 72 h of incubation, the medium was removed and then 1 × 10^5 per well of tachyzoites of the RH strain were added to the cell monolayers, in DMEM without phenol red with 3% HIFBS. One hour later, the compounds and drugs dilutions in the DMEM without phenol red medium were added to the Hs27 cells with T. gondii. Concentration of the compounds below cytotoxic concentration (<CC30), sulfadiazine 0–10,000 μM and trimethoprim, pyrimethamine and atovaquone 0–200 μM. After a subsequent 96 h of incubation, the plates were read with covered lids, and both excitation (475 nm) and emission (509 nm) from the bottom using multimode microplate reader SpectraMax® i3. The results were expressed as mean fluorescent intensity (MFI) and transformed to the percentage of viability compared to untreated cells. Finally, the inhibitory concentrations for 50% inhibition of T. gondii proliferation (IC50) were calculated. All experiments were performed in triplicate.
Graphs and statistical analyses: Statistical analyses and graphs were performed using GraphPad Prism version 9.0.0 for macOS (GraphPad Software, San Diego, CA, USA). […] Additionally, a relationship between cytotoxicity and antiparasitic activity were calculated as the ratio of the 30% cytotoxic concentration (CC30) to the 50% antiparasitic concentration (IC50) and presented as the selectivity index (SI).

[3] = test system: tachyzoites of the RH-GFP strain; experiment: Influence of compounds during Toxoplasma growth, Assay A (invasion); type: cell-based, Toxoplasma gondii; conditions: compound at IC50 present 3 h during infection, washed, 24 h free medium; vs non-treated
Experimental: (§1) Influence of Compounds during Toxoplasma Growth (Assay A and B): Hs27 cells were cultured on Lab-Tek™ 4-well Chamber Slides (Nunc, Thermo Fisher Scientific, Waltham, MA, USA) (5 × 10^4 cells/500 μL per well).
Assay A—after 48 h, the medium was removed and then 5 × 10^5/500 µL/well tachyzoites of the RH-GFP strain were added to the cell monolayers, in parasite culture medium with the selected compounds at IC50 concentration: 2b, 5b, 8b, 11b or 12b, for 3 h. Then, the cells were washed to remove extracellular parasites and parasite culture medium (without any compounds) was added for 24 h.
(§2) In both assays as the controls, Hs27 cells were infected, but not treated. After subsequent 24 h of incubation (Assay A and B), the slides were washed with sterile PBS, fixed with formaldehyde solution (252549, Sigma-Aldrich), 3.7% in PBS for 20 min and stained with DAPI for 10 min (1 mg/mL, ThermoFisher Scientific). Microscopic analysis of 100 cells in turn, comprised of counting the infected cell ratio and tachyzoites per each parasitophorous vacuoles of infected cell, was performed using a fluorescent microscope (Axio Scope.A1, Carl Zeiss, Jena, Germany) at a magnification ×1000. For image processing ZEISS ZEN Microscope Software version 3.1 was used. Three independent experiments on triplicate chamber slides using the same conditions for both assays were performed.

[4] = test system: tachyzoites of the RH-GFP strain; experiment: Influence of compounds during Toxoplasma growth, Assay B (intracellular proliferation); type: cell-based, Toxoplasma gondii; conditions: 3 h infection without compound, washed, 24 h with compound at IC50
Experimental: as §1
Assay B—after 48 h, the medium was removed and then 5 × 10^5/500 µL/well tachyzoites of the RH-GFP strain were added to the cell monolayers, in parasite culture medium for 3 h.
as §2

T. gondii RH-GFP [5] = experiment: Kinetics of T. gondii growth, Assay 1 (intracellular tachyzoites); type: cell-based, Toxoplasma gondii; conditions: Assay 1 and Assay 2, Figure 12
Experimental: Kinetics of T. gondii growth: The effect of 12b and drugs on kinetics of T. gondii RH-GFP growth was performed as follows: 1 × 10^4 per well of Hs27 cells were seeded on black, 96-well, tissue culture-treated plates with optical bottoms in DMEM cell culture medium.
Assay 1—After 72 h of incubation, the medium was removed and then 1 × 10^5 per well of tachyzoites of the RH strain were added to the cell monolayers, in DMEM without phenol red with 3% HIFBS. One hour later, the compound 12b and drugs dilutions in the DMEM without phenol red medium were added to the Hs27 cells with T. gondii.
The plates were read with covered lids, and both excitation (475 nm) and emission (509 nm) from the bottom using multimode microplate reader SpectraMax® i3. Additionally, fluorescence measurement was performed every 24 h. The plates were incubated at 37 °C with 5% of CO2. The results were expressed as mean fluorescent intensity (MFI). The initial value for 1 × 10^5 of T. gondii RH-GFP was 37,000 MFI (log 4.57). The lower limit of detection was 1000 MFI (log 3.0). Data presented as a logarithm of mean fluorescence intensity (logMFI) on concentration and time dependent curves. All experiments were performed in triplicate.

[6] = Toxoplasma gondii, HS27, 96 h; read-out: IC50 (50% inhibition of T. gondii proliferation)
[7] = ratio of CC30 (Hs27) to IC50 (T. gondii); 1b–12b and positive controls

SMILES | CC30 (cytotoxic concentration causing 30% of cells proliferation inhibition) [1] | IC50 (50% inhibition of T. gondii proliferation) (T. gondii) | IC50 (T. gondii RH-GFP [2]; [6]) | SI (selectivity index, CC30/IC50) (T. gondii RH-GFP [2]; [7]) | further results
Cc1nc[nH]c1C(=O)NNC(=S)Nc1ccccc1Cl [4a] | 143.15 µg/mL | 35.61 µg/mL |  |  | 
Cc1nc[nH]c1-c1nnc(Nc2cccc(F)c2)s1 [2b] | 18.96 µg/mL |  | 7.04 µg/mL (≈ 25.6 µM) | 2.69 | number of tachyzoites per vacuole (Assay A) [3]: significant reductions; percentage of infected cells (Assay A) [3]: significant reductions; number of intravacuolar tachyzoites (Assay B) [4]: significant reduction; percentage of infected cells (Assay B) [4]: still the same; size of parasitophorous vacuole (Assay B) [4]: significant reduction
Cc1nc[nH]c1C(=O)NNC(=S)Nc1cccc(Cl)c1 [5a] | 96.78 µg/mL | 24.15 µg/mL |  |  | 
Cc1nc[nH]c1C(=O)NNC(=S)Nc1ccccc1F [1a] | 289.60 µg/mL | 68.83 µg/mL |  |  | 
Cc1nc[nH]c1C(=O)NNC(=S)Nc1ccc(Cl)cc1 [6a] | 94.12 µg/mL | 73.37 µg/mL |  |  | 
Cc1nc[nH]c1-c1nnc(Nc2ccccc2Cl)s1 [4b] | 24.69 µg/mL |  | 12.4 µg/mL (≈ 42.4 µM) | 2.00 | 
Cc1nc[nH]c1C(=O)NNC(=S)Nc1ccccc1I [10a] | 101.58 µg/mL | 20.31 µg/mL |  |  | 
CCc1nc(N)nc(N)c1-c1ccc(Cl)cc1 [Pyrimethamine (PYR), Pyrimethamine, reference compound] | 45.26 µg/mL |  |  | 15.85 | IC50 (T. gondii RH-GFP [2]; Toxoplasma gondii, HS27, 96 h, read-out: IC50 (50% inhibition of T. gondii proliferation)): 2.86 µg/mL (≈ 11.5 µM); effect on the kinetics of T. gondii growth (T. gondii RH-GFP [5]): only moderately slow down the proliferation of tachyzoites
Cc1nc[nH]c1C(=O)NNC(=S)Nc1ccc(I)cc1 [12a] | 71.58 µg/mL | 22.01 µg/mL |  |  | 
Cc1nc[nH]c1-c1nnc(Nc2cccc(Br)c2)s1 [8b] | 20.55 µg/mL |  | 3.83 µg/mL (≈ 11.4 µM) | 5.37 | number of tachyzoites per vacuole (Assay A) [3]: significant reductions; percentage of infected cells (Assay A) [3]: significant reductions; number of intravacuolar tachyzoites (Assay B) [4]: significant reduction; percentage of infected cells (Assay B) [4]: still the same; size of parasitophorous vacuole (Assay B) [4]: significant reduction
Cc1nc[nH]c1C(=O)NNC(=S)Nc1cccc(F)c1 [2a] | 125.17 µg/mL | 113.45 µg/mL |  |  | 
O=C1C(O)=C([C@H]2CC[C@H](c3ccc(Cl)cc3)CC2)C(=O)c2ccccc21 [Atovaquone (ATO), Atovaquone, reference compound] | 54.26 µg/mL |  | 0.24 µg/mL (≈ 0.654 µM) | 227.56 | effect on the kinetics of T. gondii growth (T. gondii RH-GFP [5]): only moderately slow down the proliferation of tachyzoites
Cc1nc[nH]c1-c1nnc(Nc2cccc(Cl)c2)s1 [5b] | 17.88 µg/mL |  | 3.65 µg/mL (≈ 12.5 µM) | 4.90 | number of tachyzoites per vacuole (Assay A) [3]: significant reductions; percentage of infected cells (Assay A) [3]: significant reductions; number of intravacuolar tachyzoites (Assay B) [4]: significant reduction; percentage of infected cells (Assay B) [4]: still the same; size of parasitophorous vacuole (Assay B) [4]: significant reduction
